In US11091484B2, “Tricyclic heterocycles as BET protein inhibitors” (Incyte Corporation, priority 2013, dated 2021):
Structures can show the parent of a compound that is named as a salt. Where two headings read alike, the source gives them in different places.

What was measured:
BRD4-BD1 = BRD4-BD1 (Homo sapiens (Human), UniProt O60885); assay: BRD4 AlphaScreen assay (BRD4-BD1); type: binding; settings: H4Ac4 peptide, 3.8 nM BRD4-BD1, read-out: BRD4 BD-1 enzyme IC50
Protocol: (§1) BRD4-BD1 and BRD4-BD2 assays were conducted in white 384-well polystyrene plate in a final volume of 20 μL for BD1 and 40 μL for BD2. Inhibitors were first serially diluted in DMSO and added to the plate wells before the addition of other reaction components. The final concentration of DMSO in the assay was 1.25% (BD1) and 0.83% (BD2). The assays were carried out at room temperature for 75 min. in the assay buffer (50 mM HEPES, pH 7.4, 100 mM NaCl, 0.05% CHAPS, 0.01% BSA), containing 50 nM Biotin-labeled tetra-acetylated histone H4 peptide (H4Ac4), 3.8 nM (BRD4-BD1, BPS Bioscience #31040) or 20 nM (BRD4-BD2, BPS Bioscience #31041). The reaction followed by the addition of 20 μL of assay buffer supplemented with Streptavidin donor beads (PerkinElmer 6760002) and GSH Acceptor beads (PerkinElmer-AL109C) at 4 μg/mL under reduced light. After plate sealing, the plate was incubated in the dark at room temperature for 75 min. before reading on a PHERAstar FS plate reader (BMG Labtech). IC50 determination was performed by fitting the curve of percent control activity versus the log of the inhibitor concentration using the GraphPad Prism 5.0 software.

BRD4-BD2 = BRD4-BD2 (Homo sapiens (Human), UniProt O60885); assay: BRD4 AlphaScreen assay (BRD4-BD2); type: binding; settings: H4Ac4 peptide, 20 nM BRD4-BD2, read-out: BRD4 BD-2 enzyme IC50
Protocol: as §1

[1] = tested on: KMS.12.BM cell line (human myeloma); assay: KMS.12.BM cell viability assay; type: cell-based; settings: KMS.12.BM cells, 3 days, Cell Titer-GLO ATP quantitation, read-out: KMS cellular IC50
Protocol: KMS. 12.BM cell line (human myeloma) was purchased from JCRB (Osaka, Japan) and maintained in RPMI with 10% FBS culture medium. To measure the cytotoxic activity of the compounds through ATP quantitation, the KMS. 12.BM cells are plated in the RPMI culture medium at 5000 cells/well/per 100 μL into a 96-well polystyrene clear black tissue culture plate (Greiner-bio-one through VWR, NJ), in the presence or absence of a concentration range of test compounds. After 3 days, […] Cell Titer-GLO Luminescent (Promega, Madison, Wis.) cell culture agent is added to each well for 10 minutes at room temperature to stabilize the luminescent signal. This determines the number of viable cells in culture based on quantitation of the ATP present, which signals the presence of metabolically active cells. Luminescence is measured with the Top Count 384 (Packard Bioscience through Perkin Elmer, Boston, Mass.). […] IC50 data for the Examples is presented in Table 4 as determined by Assay B1.

Row | IC50 (BRD4-BD1) [µM] | IC50 (BRD4-BD2) [µM] | IC50 ([1]; Homo sapiens, 72 h) [µM] | SMILES | IC50 [1] [µM]
1 | ≤ 0.1 | ≤ 0.1 | ≤ 1 | Cc1cc2c(cc(N[C@H]3CCN(C)[C@@H](C)C3)c3nnc(C)n32)n1Cc1ccccc1 (racemic) [Example 224, 6-Benzyl-N-[(2S,4S)-1,2-dimethylpiperidin-4-yl]-1,7-dimethyl-6H-pyrrolo[2,3-e][1,2,4]triazolo[4,3-a]pyridin-4-amine and 6-Benzyl-N-[(2R,4R)-1,2-dimethylpiperidin-4-yl]-1,7-dimethyl-6H-pyrrolo[2,3-e][1,2,4]triazolo[4,3-a]pyridin-4-amine (Racemic Mixture Prepared)] | –
2 | – | – | ≤ 1 | Cc1nnc2ccc3c(cc(-c4ccn(CCC(=O)N(C)C)n4)n3Cc3cccc(Cl)c3)n12 [Example 103, 3-{3-[6-(3-chlorobenzyl)-1-methyl-6H-pyrrolo[2,3-e][1,2,4]triazolo[4,3-a]pyridin-7-yl]-1H-pyrazol-1-yl}-N,N-dimethylpropanamide] | –
3 | – | – | – | Cc1nnc2ccc3c(cc(-c4cc[nH]n4)n3Cc3cccc(CN4CCC4)c3)n12 [Example 182, 6-[3-(Azetidin-1-ylmethyl)benzyl]-1-methyl-7-(1H-pyrazol-3-yl)-6H-pyrrolo[2,3-e][1,2,4]triazolo[4,3-a]pyridine tris(trifluoroaceate) Salt] | ≤ 1
